Key:
Assay in all cases: Glasshouse herbicide test, pre- and post-emergence, percentage damage
Format in all cases: in vivo
[1] = tested on: Echinochloa crus-galli (ECHCG); conditions: 1000 g/h, evaluated after 13 days, five point scale; for percentage damage caused to the plant, ECHCG, POST Application: post-emergence; for percentage damage caused to the plant, ECHCG, PRE Application: pre-emergence
Protocol: (§1) Seeds of a variety of test species are sown in standard soil in pots (Alopecurus myosuroides (ALOMY), Setaria faberi (SETFA), Stellaria media (STEME), Echinochloa crus-galli (ECHCG), Solanum nigrum (SOLNI), Amaranthus retoflexus (AMARE), Ipomoea hederacea (IPOHE), Lolium perenne (LOLPE). After cultivation for one day (pre-emergence) or after 8 days cultivation (post-emergence) under controlled conditions in a glasshouse (at 24/16° C., day/night; 14 hours light; 65% humidity), the plants are sprayed with an aqueous spray solution derived from the formulation of the technical active ingredient in acetone/water (50:50) solution containing 0.5% Tween 20 (polyoxyethelyene sorbitan monolaurate, CAS RN 9005-64-5). Compounds ae applied at 1000 g/h. The test plants are then grown in a glasshouse under controlled conditions in a glasshouse (at 24/16° C., day/night; 14 hours light; 65% humidity) and watered twice daily. After 13 days for pre and post-emergence, the test is evaluated for the percentage damage caused to the plant. The biological activities are shown in the following table on a five point scale (5=80-100%; 4=60-79%; 3=40-59%; 2=20-39%; 1=0-19%).

[2] = tested on: Amaranthus retoflexus (AMARE); conditions: 1000 g/h, evaluated after 13 days, five point scale (Table B1); for percentage damage caused to the plant, AMARE, POST Application: post-emergence; for percentage damage caused to the plant, AMARE, PRE Application: pre-emergence
Protocol: as §1

[3] = tested on: Ipomoea hederacea (IPOHE); conditions: 1000 g/h, evaluated after 13 days, five point scale; for percentage damage caused to the plant, IPOHE, POST Application: post-emergence; for percentage damage caused to the plant, IPOHE, PRE Application: pre-emergence
Protocol: as §1

Solanum nigrum (SOLNI) = conditions: 1000 g/h, evaluated after 13 days, five point scale; for percentage damage caused to the plant, SOLNI, POST Application: post-emergence; for percentage damage caused to the plant, SOLNI, PRE Application: pre-emergence
Protocol: as §1

Setaria faberi (SETFA) = conditions: 1000 g/h, evaluated after 13 days, five point scale; for percentage damage caused to the plant, SETFA, POST Application: post-emergence; for percentage damage caused to the plant, SETFA, PRE Application: pre-emergence
Protocol: as §1

[4] = tested on: Alopecurus myosuroides (ALOMY); conditions: 1000 g/h, evaluated after 13 days, five point scale; for percentage damage caused to the plant, ALOMY, POST Application: post-emergence; for percentage damage caused to the plant, ALOMY, PRE Application: pre-emergence
Protocol: as §1

Compound | percentage damage caused to the plant, ECHCG, POST Application [1] | percentage damage caused to the plant, ECHCG, PRE Application [1] | percentage damage caused to the plant, AMARE, POST Application [2] | percentage damage caused to the plant, AMARE, PRE Application [2] | percentage damage caused to the plant, IPOHE, POST Application [3] | percentage damage caused to the plant, IPOHE, PRE Application [3] | percentage damage caused to the plant, SOLNI, POST Application (Solanum nigrum (SOLNI)) | percentage damage caused to the plant, SOLNI, PRE Application (Solanum nigrum (SOLNI)) | percentage damage caused to the plant, SETFA, POST Application (Setaria faberi (SETFA)) | percentage damage caused to the plant, SETFA, PRE Application (Setaria faberi (SETFA)) | percentage damage caused to the plant, ALOMY, POST Application [4] | percentage damage caused to the plant, ALOMY, PRE Application [4]
Cn1nnnc1NC(=O)c1ccc(S(C)(=O)=O)c(COCC(F)(F)F)c1Cl [Compound 1.001] | 5 (5=80-100%) | 5 (5=80-100%) | 5 (5=80-100%) | 5 (5=80-100%) | 5 (5=80-100%) | 5 (5=80-100%) | 5 (5=80-100%) | 5 (5=80-100%) | 5 (5=80-100%) | 5 (5=80-100%) | 5 (5=80-100%) | 5 (5=80-100%)
Cn1nnnc1NC(=O)c1ccc(C(F)(F)F)cc1S(C)(=O)=O [Compound 1.003] | 5 (5=80-100%) | 5 (5=80-100%) | 5 (5=80-100%) | 5 (5=80-100%) | 5 (5=80-100%) | 5 (5=80-100%) | 5 (5=80-100%) | 5 (5=80-100%) | 5 (5=80-100%) | 5 (5=80-100%) | 5 (5=80-100%) | 5 (5=80-100%)
CCCn1nnnc1NC(=O)c1cc(Cl)ccc1Cl [Compound 1.004] | 1 (1=0-19%) | 1 (1=0-19%) | 4 (4=60-79%) | 5 (5=80-100%) | 5 (5=80-100%) | 1 (1=0-19%) | 5 (5=80-100%) | 4 (4=60-79%) | 1 (1=0-19%) | 1 (1=0-19%) | 1 (1=0-19%) | 1 (1=0-19%)
CCc1nc(C(C)F)ccc1C(=O)Nc1nnnn1C (stereo not drawn) [Compound 1.005] | 5 (5=80-100%) | 5 (5=80-100%) | 5 (5=80-100%) | 5 (5=80-100%) | 5 (5=80-100%) | 5 (5=80-100%) | 5 (5=80-100%) | 5 (5=80-100%) | 2 (2=20-39%) | 3 (3=40-59%) | 2 (2=20-39%) | 3 (3=40-59%)
COCCOCc1nc(C(C)(F)F)ccc1C(=O)Nc1nnnn1C [Compound 1.008] | 5 (5=80-100%) | 5 (5=80-100%) | 5 (5=80-100%) | 5 (5=80-100%) | 5 (5=80-100%) | 5 (5=80-100%) | 5 (5=80-100%) | 5 (5=80-100%) | 5 (5=80-100%) | 5 (5=80-100%) | 5 (5=80-100%) | 5 (5=80-100%)
Cn1nnnc1NC(=O)c1cc(Cl)ccc1C(F)(F)F [Compound 1.009] | 2 (2=20-39%) | 2 (2=20-39%) | 5 (5=80-100%) | 5 (5=80-100%) | 5 (5=80-100%) | 4 (4=60-79%) | 5 (5=80-100%) | 5 (5=80-100%) | 1 (1=0-19%) | 1 (1=0-19%) | 5 (5=80-100%) | 5 (5=80-100%)
Cn1nnnc1NC(=O)c1cc(F)ccc1C(F)(F)F [Compound 1.010] | 4 (4=60-79%) | 4 (4=60-79%) | 5 (5=80-100%) | 5 (5=80-100%) | 5 (5=80-100%) | 5 (5=80-100%) | 5 (5=80-100%) | 5 (5=80-100%) | 2 (2=20-39%) | 2 (2=20-39%) | 5 (5=80-100%) | 5 (5=80-100%)
Cn1nnnc1NC(=O)c1cc(F)c(F)cc1[N+](=O)[O-] [Compound 1.011] | 2 (2=20-39%) | 1 (1=0-19%) | 3 (3=40-59%) | 5 (5=80-100%) | 2 (2=20-39%) | 1 (1=0-19%) | 2 (2=20-39%) | 1 (1=0-19%) | 1 (1=0-19%) | 1 (1=0-19%) | 1 (1=0-19%) | 1 (1=0-19%)
Cn1nnnc1NC(=O)c1cc(Br)c(Cl)cc1F [Compound 1.012] | 3 (3=40-59%) | 1 (1=0-19%) | 5 (5=80-100%) | 4 (4=60-79%) | 5 (5=80-100%) | 1 (1=0-19%) | 4 (4=60-79%) | 1 (1=0-19%) | 4 (4=60-79%) | 1 (1=0-19%) | 2 (2=20-39%) | 1 (1=0-19%)

Source: patent US9686986B2, “Herbicidal compounds” (SYNGENTA LIMITED, priority 2011, dated 2017)
